# Literature values, collected in patent US6420379B1, “Alkynyl-substituted camptothecins and process for their preparation” (Pharmacia & Upjohn S.p.A., priority 1997, dated 2002).
# Columns and labels:
# [1] = 2 hours after drug addition to human plasma
# [2] = target: human albumin (Homo sapiens, UniProt P02768); conditions: presence of biologically relevant levels of human albumin
# human albumin, sequence (P02768 25-609): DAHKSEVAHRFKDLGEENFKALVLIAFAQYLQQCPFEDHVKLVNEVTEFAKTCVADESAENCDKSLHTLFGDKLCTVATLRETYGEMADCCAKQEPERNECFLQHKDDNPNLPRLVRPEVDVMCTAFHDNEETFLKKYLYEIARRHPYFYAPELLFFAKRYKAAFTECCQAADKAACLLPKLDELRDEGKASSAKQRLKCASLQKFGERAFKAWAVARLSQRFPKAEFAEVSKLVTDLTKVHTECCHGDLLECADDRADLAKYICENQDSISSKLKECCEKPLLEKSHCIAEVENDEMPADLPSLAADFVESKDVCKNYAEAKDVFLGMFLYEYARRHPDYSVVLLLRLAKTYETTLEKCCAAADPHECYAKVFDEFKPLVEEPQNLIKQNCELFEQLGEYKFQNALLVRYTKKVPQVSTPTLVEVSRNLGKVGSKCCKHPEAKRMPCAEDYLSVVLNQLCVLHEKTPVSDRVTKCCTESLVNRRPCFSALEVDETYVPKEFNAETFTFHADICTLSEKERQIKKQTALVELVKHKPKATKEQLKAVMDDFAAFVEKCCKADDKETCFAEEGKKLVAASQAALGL
structure (smiles),measurement,setting,value
CC[C@@]1(O)C(=O)OCc2c1cc1n(c2=O)Cc2cc3ccccc3nc2-1 [camptothecin],percentage of the drug converted to camptothecin carboxylate,[1],greater than 99%
same,half-life of the biologically active form,[2],about 12 min.
